This note sets out measurements from a melting point compilation (Tetko et al.; mined from patent text by program, amines drawn as free bases though some values may be those of a salt).

As a reminder, the melting point is the temperature of the solid-liquid transition. For `Cc1cccc(NC(=O)NCC(=O)Nc2ccccc2C(=O)c2cccs2)c1`, the melting point was 208 to 210 °C. For the compound `COC(=O)CCc1cn(Cc2ccc(O)cc2)nc1-c1ccccc1`, the melting point is 87 to 88 °C. The compound `COc1ccc(C(=O)Nc2cc(N)ccc2Br)cc1OC` yielded a melting point of 154 to 155 °C. `Cc1c(Cc2ccccc2)[nH]c2ccccc2c1=O` gave a melting point of 285 to 287 °C. `COc1cc2c(cc1OC)N(C)C(=O)CN=C2c1cccc([N+](=O)[O-])c1`: the melting point lay within 152 to 155 °C. Take `Cc1cc2c(-c3ccccc3)c(CO)n(C)c(=O)c2cc1C`: the melting point lay within 209 to 210 °C. For `CCCCCCCCCCC1SCCCN1C(=S)Nc1cccc(Cl)c1` (stereo unspecified), the melting point lay in the range of 63 to 65 °C. The compound `CCOC(=O)c1n[nH]cc1-c1ccccc1` showed a melting point of 164 to 165 °C.

`CCOC(=O)CN(CC(=O)OCC)Cc1ccc2cc(N)c3ccc(CN(CC(=O)OCC)CC(=O)OCC)nc3c2n1` gave a melting point of 137 to 139 °C.

Compound `CCC(C)Nc1nc(-c2cc(OC)c(OC)c(OC)c2)nc2sc(C#N)c(C)c12` (stereo unspecified) showed a melting point of 91 to 93 °C. The result for `COC(=O)CC(C)(C)C(C)(C)S(=O)(=O)c1ccc(C)cc1` reads 90 °C; that for `FC(F)(F)C1(c2cc(Cl)cc(Cl)c2)CCN(c2ccc(-n3cnnn3)c(Br)c2)C1` (stereo unspecified), 193 to 194 °C; that for `COC(=O)N1CCN2c3ccc(N4CC(CNC(C)=O)OC4=O)cc3OCC2C1` (stereo unspecified), 185 to 190 °C. Compound `CC(=O)OCC1OC(F)C(N2C(=O)c3ccccc3C2=O)C(OC(C)=O)C1OC(C)=O` (stereo unspecified) gave a melting point of 116 °C.

In turn, `CP(C)(=O)C(O)C(N)=O` (stereo unspecified) showed a melting point of 155 °C. To `FC(F)(F)c1cccc(N2CCC(N=Cc3cnc4ccccc4c3)=N2)c1` belongs 209 to 210 °C; to `COc1ccc(SCCNC(=O)N2CCCC2=O)cc1`, 64 to 65 °C. Regarding `N#Cc1c(CNC(=O)c2ccc(-n3cccc3)cc2)nn(-c2ccc(Cl)cc2Cl)c1-c1ccc(Cl)cc1`, the melting point was 121 °C. For the compound `CC(C)(C)COc1ccc(NC(=O)c2ccn(-c3ccc(F)cc3)c2)cc1C#N`, the melting point is 167 to 169 °C. In turn, `O=C(O)CCc1oc(-n2cnc3ccccc32)nc1-c1ccc(C(F)(F)F)cc1` returned a melting point of 224 to 226 °C. As to `Cc1ccc(S(=O)(=O)N(CCO)CCN(CCN(CCO)S(=O)(=O)c2ccc(C)cc2)S(=O)(=O)c2ccc(C)cc2)cc1`, the melting point lay within 110 to 112 °C. Turning to `O=C(O)C1CCc2cccc3c(=O)[nH]c(=O)n1c23` (stereo unspecified), the melting point was more than 300 °C. In turn, `COc1ccc2c(c1)CCC1C2CCC2(C)C(=O)C(C)CC12` (stereo unspecified) yielded a melting point of 115 to 116 °C.

For `O=C(Nc1ccc(C(F)(F)F)cc1)N1CCC2Cc3ccccc3C2=N1` (stereo unspecified), the melting point lay in the range of 122 to 124 °C. The compound `C#CCCCCn1ncc2c(N)c(C(=O)OCC)c(C)nc21` yielded a melting point of 63 to 65 °C. `O=[N+]([O-])c1ccc(-c2ccc(Cl)cc2)cc1` came in with a melting point of 142 to 145 °C. The compound `CC1(C)CCC(C)(C)c2cc(SCc3ccc(C(=O)O)cc3)ccc21` had a melting point of 169 to 170 °C. With `Cc1cc(C(F)(F)F)n2nc(NS(=O)(=O)c3ccccc3Cl)nc2n1`, the melting point was in the range of 203 to 204 °C.

Take `Cc1ccc(C(Cn2cncn2)c2ccccc2)cc1` (stereo unspecified): the melting point lay within 98 to 100 °C.

For `CCOC(=O)c1cnc2cc(C)sc2c1O`, the melting point lay in the range of 240 to 245 °C. The result for `Cc1cccc(C2(CC(=O)O)CNC(=O)C2)c1` (stereo unspecified) reads 152 to 154 °C; that for `CCc1ccc(-c2nc(-c3ccccc3Cl)nn2C)c(Cl)c1`, 75.5 to 77.5 °C.

In turn, `COc1ccc(Oc2cc3ccc(Cl)cc3cn2)cc1` showed a melting point of 77 °C. The result for `COc1cc(-c2cnc3[nH]cc(C(=O)NC4CCCOC4)c3n2)cc(OC)c1OC` (stereo unspecified) reads 191 to 192 °C; that for `CCOC12CCC(=O)CC13CCN(C)C2Cc1ccc(OC)cc13` (stereo unspecified), 171 to 173 °C. Consider `Cn1cc(-c2cc3cccnc3[nH]2)c2cc(C(=O)N(CCO)CCO)ccc21`, for which the melting point fell in the range of 230 to 232 °C.

`COC(=O)C1=Cc2cc(-c3ccc(C(C)C)cc3)ccc2S(=O)(=O)CC1` gave a melting point of 142 to 144 °C. To `Sc1ncc(-c2ccccc2)s1` belongs 207 to 209 °C. The result for `O=C(Oc1ccccc1)N1CCC(Oc2ccc(F)cc2)CC1` reads 98.5 to 100 °C. In turn, `CSc1ncc2ccc(=O)n(C)c2n1` yielded a melting point of 192 to 193 °C.

With `CCCOc1ccc(S(=O)(=O)NCCc2c[nH]cn2)cc1-c1nc2cc(N)c([N+](=O)[O-])cc2c(=O)[nH]1`, the melting point is 169 to 172 °C. As to `CC(C)SCCOc1ccc(COc2cnn(C(C)(C)C)c(=O)c2Cl)cc1`, the melting point lay within 82 to 84.5 °C.

`Cc1cc(C)c(Cc2ccc(=O)[nH]n2)c(C)c1` showed a melting point of 125 to 127 °C. Consider `O=C1CCOc2cc(S)ccc21`, for which the melting point was 144 to 145 °C. For `COc1cccc2c1CC1OC1C2` (stereo unspecified), the melting point lay within 49.5 to 50.5 °C. For the compound `COc1ccc(Sc2ccc3c(c2)CCC2N(C)C(=O)CCC32C)cc1` (single isomer, unassigned; (+)), the melting point lay within 150 to 151 °C. With `CCCCCCCCC1CC(c2ccc(-c3ccc(CCCCC)cc3)cc2)OC1=O` (stereo unspecified), the melting point fell in the range of 114 to 118 °C. For the compound `COc1cccc(C2=C(c3cn4c5c(cccc35)CCC4)C(=O)NC2=O)c1`, the melting point was in the range of 99 to 101 °C. Compound `CC(C)Oc1ccc(Nc2ccc(N=C=O)cc2C(F)(F)F)cc1C(F)(F)F` had a melting point of 102 to 105 °C. To `Nc1ncnc2c1c(-c1cccc(O)c1)nn2Cc1oc2ccccc2c(=O)c1-c1ccccc1` belongs 154 to 158 °C. Regarding `Cc1c(C2=CCC(c3cccc(F)c3)(N(C)C)CC2)[nH]c2ccccc12` (stereo unspecified), the melting point was in the range of 157 to 163 °C. To `CCCCc1sc2ccccc2c1-c1ccc(-c2ccc(OC(C(=O)O)c3ccccc3)cc2)cc1` (stereo unspecified) belongs 157 to 159 °C; to `CCC(=O)c1[nH]c2cc(Cl)ccc2c1NC(C)=O`, more than 270 °C. The result for `COc1ccc(C(=O)Nc2ccccc2)c(CC2CCCCN2)c1` (stereo unspecified) reads 108 to 109 °C; that for `CC1(C)[C@@H]2CC3[C@H](C(N)=O)[C@@]3(C)C[C@@H]21` (stereo partly specified), 122 °C. The compound `COCn1ccnc1C(O)(c1ccccc1)c1ccc(Cl)cc1Cl` (stereo unspecified) displayed a melting point of 161 to 162 °C. The result for `NC(=O)Cc1ccc(C2CCCCC2)cc1` reads 167 to 168 °C. The compound `c1ccc2c(c1)CCN(Cc1n[nH]c3ccccc13)C2` returned a melting point of 151 to 152 °C. `CC(CCCc1ccccc1)Oc1cc(O)c2c(c1)CC(C)(C)CC2CC(N)=O` (stereo unspecified) came in with a melting point of 67 to 72 °C.

On to `Cc1cc(Nc2c3ccccc3nc3ccccc23)ccc1N`, for which the melting point is 256 to 257 °C. Turning to `COCCN1C(=S)N(c2ccc(C#N)c(C(F)(F)F)c2)C(=O)C1(C)C`, the melting point was 98 to 99 °C. `CCCCc1ccc(OC)c(-c2csc(N)n2)c1` yielded a melting point of 48 °C.

`OCc1nc2n(n1)-c1ccc(Cl)cc1N(c1ccccc1)C2` gave a melting point of 204 to 207 °C. The result for `O=C(CCl)Nc1ccc2c(c1NC(=O)c1ccc(Cl)cc1)C(=O)c1ccccc1C2=O` reads 224 to 225 °C.

On to `COC(=O)c1ccc(C#CCO)cc1`, for which the melting point is 81 to 82 °C. For the compound `CCNc1nc2ccc(CCc3ccc(CN4CCCCC4)o3)cc2o1`, the melting point was 98 to 100 °C.

Turning to `CC(C)c1ccc(-n2c(CC(=O)O)c(C(=O)O)c3cc(Oc4ccc(C(F)(F)F)cc4)ccc32)cc1`, the melting point lay in the range of 250 to 252 °C. Compound `Cn1c2ccccc2c2cc(C=O)c3ccccc3c21` displayed a melting point of 188 to 192 °C. `CC(C)(CO)c1ccc(C(=O)Nc2cn3cc(C(F)(F)F)ccc3n2)cc1` had a melting point of 227 to 229 °C.

For `C[Si](C)(C)C#Cc1cc2ccc(-n3nc4ccc5ccccc5c4n3)cc2oc1=O`, the melting point was in the range of 250 to 252 °C. As to `CCOCC(COCC)Oc1ccc(/C=C/C(=O)OCC)c(Oc2ncc(C(F)(F)F)cc2Cl)c1`, the melting point lay in the range of 66 to 67.5 °C. `COc1cc2ncc(C#N)c(Nc3ccc(C)cc3)c2cc1OC` gave a melting point of 128 to 130 °C.

Compound `C#CCN1CCCc2cccc(CSc3nc4ccccc4[nH]3)c21` showed a melting point of 122 °C. To `CSc1nn2c(N)cc(C)nc2c1S(=O)(=O)c1cccs1` belongs more than 230 °C; to `O=C(O)C1Cc2cc3c(=O)c4c(Cl)cccc4oc3c(Cl)c2O1` (stereo unspecified), 291 to 294 °C. Turning to `Cc1cccc(C)c1C(=O)OCC(N)=O`, the melting point was 106 to 108 °C. `CC(C)CNC(=O)c1ccc(C(=O)N2CCC[C@@H]3CCCC[C@H]32)cc1N` (relative stereo) gave a melting point of 153 to 155 °C. As to `CCc1noc(C)c1-c1[nH]c2ccccc2c1CC(=O)O`, the melting point was 194 to 197 °C. In the case of `Cc1cc(N)c(Br)c(C)c1C`, the melting point came to 69 °C. Take `Cc1cccc(NC(=O)NC2N=C(C3CC3)c3cccc(C)c3N(CC(=O)N3CCCCCCC3)C2=O)c1` (stereo unspecified): the melting point is 178 to 179 °C. Turning to `CCOc1ccc(S(=O)(=O)Cl)cc1C(=O)O`, the melting point was 108 to 110 °C. The result for `CN(C=O)c1ccc2[nH]cc(CC#N)c2c1` reads 118 to 120 °C; that for `Cc1cc(O)c([N+](=O)[O-])c(=O)n1CC(=O)O`, 205 °C; that for `OCC1=NOC(c2ccccc2)C1` (stereo unspecified), 73 to 74 °C. Regarding `CN1CN(C2CC2)c2ccc(C(N)=O)cc2S1(=O)=O`, the melting point was in the range of 271 to 273 °C.

`COc1cc(OC)c(C2C=CCN(C)C2)c(OC)c1` (stereo unspecified) returned a melting point of 118 to 122 °C. The result for `COc1ccc(N)cc1NC(C)=O` reads 83 °C; that for `CC(C)(O)CN(c1ccc(F)cc1)[C@H]1c2cc(C#N)ccc2OC(C)(C)[C@@H]1O`, 70 °C. Consider `COc1ccc(C(=O)c2ccc(OCc3nc(-c4ccccc4)oc3C)cc2C)c(O)c1`, for which the melting point lay in the range of 109 to 110 °C. The compound `O=C(Nc1cc([N+](=O)[O-])cc([N+](=O)[O-])c1)C1CC1` showed a melting point of 147 to 149 °C. To `CCCCCCc1c(Br)c(-c2ccccc2)n(-c2ccc(C)cc2)c1-c1ccccc1` belongs 86 to 89 °C.
